Results as given in US11365199B2, “Pyrazole compounds as modulators of FSHR and uses thereof” (Merck Patent GmbH, priority 2013, dated 2022).

Columns and labels:
[1] = target: T1, follicle-stimulating hormone (FSH) receptor (Rattus norvegicus, UniProt P20395); experiment: Rat granulosa EC50 FSH (Assay B); assay type: cell-based; details: for EC50: rat granulosa cells, read-out: Assay B: Rat granulosa EC50 FSH
T1 construct: endogenous in cells; host or cells: primary rat granulosa cells
T1 sequence (P20395 18-692): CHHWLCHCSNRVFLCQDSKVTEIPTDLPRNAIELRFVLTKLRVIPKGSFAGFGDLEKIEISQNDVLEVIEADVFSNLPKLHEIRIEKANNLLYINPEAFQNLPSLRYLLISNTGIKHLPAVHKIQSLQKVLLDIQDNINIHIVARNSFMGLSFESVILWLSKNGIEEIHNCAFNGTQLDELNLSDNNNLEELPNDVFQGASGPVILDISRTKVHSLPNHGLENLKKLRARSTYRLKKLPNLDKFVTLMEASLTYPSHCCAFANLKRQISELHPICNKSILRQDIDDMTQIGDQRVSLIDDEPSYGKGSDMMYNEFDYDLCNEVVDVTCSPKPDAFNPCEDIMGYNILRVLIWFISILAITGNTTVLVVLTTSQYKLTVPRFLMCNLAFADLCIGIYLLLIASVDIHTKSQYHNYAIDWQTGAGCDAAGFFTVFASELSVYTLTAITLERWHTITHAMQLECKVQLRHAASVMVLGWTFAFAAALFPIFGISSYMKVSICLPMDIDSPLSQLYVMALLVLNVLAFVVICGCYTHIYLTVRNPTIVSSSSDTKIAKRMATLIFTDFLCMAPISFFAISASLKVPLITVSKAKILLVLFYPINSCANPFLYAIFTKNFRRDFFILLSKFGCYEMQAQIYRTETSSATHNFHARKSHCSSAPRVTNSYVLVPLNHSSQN
Procedure: Rat Granulosa EC50 FSH (Assay B)
The assay was performed pursuant to the teaching of Yanofsky et al. (2006) Allosteric activation of the follicle-stimulating hormone (FSH) receptor by selective, nonpeptide agonists (JBC 281(19): 13226-13233, which is incorporated by reference in the disclosure of the invention).

FSHR = target: T2, FSHR (Homo sapiens, UniProt P23945); experiment: EC50 of cyclic AMP production in CHO FSHR cells + EC20 FSH (Assay A); assay type: cell-based; details: CHO FSHR cells + EC20 FSH, cAMP HTRF; read-out: Assay A: EC50 of cyclic AMP production
T2 construct: expressed in transfected cells; host or cells: CHO (Cho-FSHR-LUC-1-1-43)
T2 sequence (P23945 18-695): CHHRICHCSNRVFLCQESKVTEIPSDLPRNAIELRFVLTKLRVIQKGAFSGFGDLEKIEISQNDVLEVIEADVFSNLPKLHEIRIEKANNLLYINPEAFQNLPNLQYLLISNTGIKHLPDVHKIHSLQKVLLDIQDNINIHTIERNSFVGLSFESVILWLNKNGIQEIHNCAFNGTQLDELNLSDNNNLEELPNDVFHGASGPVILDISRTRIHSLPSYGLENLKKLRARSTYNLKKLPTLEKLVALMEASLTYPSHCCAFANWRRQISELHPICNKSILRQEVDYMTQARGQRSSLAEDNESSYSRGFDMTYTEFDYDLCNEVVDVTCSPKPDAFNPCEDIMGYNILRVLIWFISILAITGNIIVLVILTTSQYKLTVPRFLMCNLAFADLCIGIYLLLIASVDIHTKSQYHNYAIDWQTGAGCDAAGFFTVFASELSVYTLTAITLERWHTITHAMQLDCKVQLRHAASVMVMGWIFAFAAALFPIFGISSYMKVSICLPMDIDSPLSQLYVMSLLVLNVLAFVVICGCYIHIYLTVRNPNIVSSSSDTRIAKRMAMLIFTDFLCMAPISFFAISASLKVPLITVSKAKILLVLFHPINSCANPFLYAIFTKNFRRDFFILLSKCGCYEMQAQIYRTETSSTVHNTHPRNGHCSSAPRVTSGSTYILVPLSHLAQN
Summary of the method: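 cAMP HTRF read-out (665 nm/620 nm ratio) after 1 h at 37° C of Cho-FSHR-LUC cells treated with serially diluted test compound plus EC20 FSH ([…]) and IBMX (final 200 μM). Responses given as percent of maximal FSH-standard effect.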

Compound | EC50 [1] [nM] | EC50 (FSHR) [nM] | Emax at 6 µM ([1]; read-out: Assay B: percental effect (response) relative to the maximum response of the FSH standard) [%]
COc1cc2c(cc1-c1ccns1)-c1c(c(C(=O)N(C)C(C)(C)C)nn1-c1ccsc1)CO2 [Compound 105, 8-Isothiazol-5-yl-7-methoxy-1-thiophen-3-yl-1,4-dihydro-chromeno[4,3-c]pyrazole-3-carboxylic acid tert-butyl-methyl-amide] | < 100 | < 100 | 
COc1cc2c(cc1-c1ccn(C)c1)-c1c(c(C(=O)NC3(C)COC3)nn1-c1ccsc1)CO2 [Compound 99, 7-Methoxy-8-(1-methyl-1H-pyrrol-3-yl)-1-thiophen-3-yl-1,4-dihydro-chromeno[4,3-c]pyrazole-3-carboxylic acid (3-methyl-oxetan-3-yl)-amide] | 100 to 1000 | 100 to 1000 | 
COc1cc2c(cc1-c1ccc(C)s1)-c1c(c(C(=O)N(C)C(C)(C)C)nn1-c1ccsc1)CO2 [Compound 93, 7-Methoxy-8-(5-methyl-thiophen-2-yl)-1-thiophen-3-yl-1,4-dihydro-chromeno[4,3-c]pyrazole-3-carboxylic acid tert-butyl-methyl-amide] | 100 to 1000 | < 100 | 
COc1cc2c(cc1-c1ccn(C)c1)-c1c(c(C(=O)N3CCNCC3(C)C)nn1-c1ccsc1)CO2 [Compound 170] | 1000 to 5000 | < 100 | 
COCCCn1cc(-c2cc3c(cc2OC)OCc2c(C(=O)N4CCOCC4(C)C)nn(-c4ccsc4)c2-3)cn1 [Compound 208, (3,3-Dimethyl-morpholin-4-yl)-{7-methoxy-8-[1-(3-methoxy-propyl)-1H-pyrazol-4-yl]-1-thiophen-3-yl-1,4-dihydro-chromeno[4,3-c]pyrazol-3-yl}-methanone] | < 100 | < 100 | 
COc1cc2c(cc1-c1ccn(C)n1)-c1c(c(C(=O)N3CCOCC3(C)C)nn1-c1ccsc1)CO2 [Compound 94, (3,3-Dimethyl-morpholin-4-yl)-[7-methoxy-8-(1-methyl-1H-pyrazol-3-yl)-1-thiophen-3-yl-1,4-dihydro-chromeno[4,3-c]pyrazol-3-yl]-methanone] | 100 to 1000 | < 100 | 
COc1cc2c(cc1CC(C)C)-c1c(c(C(=O)N(C)C(C)(C)C)nn1-c1ccsc1)CO2 [Compound 5, 8-Isobutyl-7-methoxy-1-thiophen-3-yl-1,4-dihydro-chromeno[4,3-c]pyrazole-3-carboxylic Acid tert-butyl-methyl-amide] | 1000 to 5000 | < 100 | 
[2H]C([2H])([2H])OCC1(N(C(=O)c2nn(-c3ccsc3)c3c2COc2cc(OC)c(CC(C)C)cc2-3)C([2H])([2H])[2H])COC1 [Compound 162] | 100 to 1000 | < 100 | 
COc1cc2c(cc1CC(C)C)-c1c(c(C(=O)N3CCCN(C(=O)C4CCCO4)CC3)nn1-c1ccsc1)CO2 (centres unmarked) [Compound 21, (8-Isobutyl-7-methoxy-1-thiophen-3-yl-1,4-dihydro-chromeno[4,3-c]pyrazol-3-yl)-[4-(tetrahydro-furan-2-carbonyl)-[1,4]diazepan-1-yl]-methanone] | > 5000 | 100 to 1000 | 
COc1cc2c(cc1C1=CCCC1)-c1c(c(C(=O)N(C)C(C)(C)C)nn1-c1ccsc1)CO2 [Compound 149, 8-Cyclopent-1-enyl-7-methoxy-1-thiophen-3-yl-1,4-dihydro-chromeno[4,3-c]pyrazole-3-carboxylic acid tert-butyl-methyl-amide] | 100 to 1000 | < 100 | 
[2H]C([2H])([2H])N(C(=O)c1nn(-c2ccsc2)c2c1COc1cc(OC)c(-c3ccn(C)n3)cc1-2)C1(C)COC1 [Compound 116] | 1000 to 5000 | < 100 | 
COc1cc2c(cc1OC(C)C)-c1c(c(C(=O)N3CCCC(C(=O)N4CCC4)CC3)nn1-c1ccsc1)CO2 (centres unmarked) [Compound 26, [4-(Azetidine-1-carbonyl)-azepan-1-yl]-(8-isopropoxy-7-methoxy-1-thiophen-3-yl-1,4-dihydro-chromeno[4,3-c]pyrazol-3-yl)-methanone] | > 5000 | 1000 to 5000 | 
COc1cc2c(cc1-c1cnn(C3CC3)c1)-c1c(c(C(=O)N3CCOCC3(C)C)nn1-c1ccsc1)CO2 [Compound 215] | 100 to 1000 | < 100 | 
COc1cc2c(cc1-c1ccn(C)n1)-c1c(c(C(=O)N3CCOCC34COC4)nn1-c1ccsc1)CO2 [Compound 154, (2,8-Dioxa-5-aza-spiro[3.5]non-5-yl)-[7-methoxy-8-(1-methyl-1H-pyrazol-3-yl)-1-thiophen-3-yl-1,4-dihydro-chromeno[4,3-c]pyrazol-3-yl]-methanone] | 1000 to 5000 | < 100 | 
COCOCCn1cc(-c2cc3c(cc2OC)OCc2c(C(=O)N4CCOCC4(C)C)nn(-c4ccsc4)c2-3)cn1 [Compound 205, (3,3-Dimethyl-morpholin-4-yl)-{7-methoxy-8-[1-(2-methoxymethoxy-ethyl)-1H-pyrazol-4-yl]-1-thiophen-3-yl-1,4-dihydro-chromeno[4,3-c]pyrazol-3-yl}-methanone] | < 100 | < 100 | 
COc1cc2c(cc1Br)-c1c(c(C(=O)N(C)C(C)(C)C)nn1-c1ccsc1)CO2 [Compound 4, 8-Bromo-7-methoxy-1-thiophen-3-yl-1,4-dihydro-chromeno[4,3-c]pyrazole-3-carboxylic Acid tert-butyl-methyl-amide] |  | 100 to 1000 | 62
CCn1cc(-c2cc3c(cc2OC)OCc2c(C(=O)N4CCOCC4(C)C)nn(-c4ccsc4)c2-3)cn1 [Compound 210, (3,3-Dimethyl-morpholin-4-yl)-[8-(1-ethyl-1H-pyrazol-4-yl)-7-methoxy-1-thiophen-3-yl-1,4-dihydro-chromeno[4,3-c]pyrazol-3-yl]-methanone] | > 5000 | < 100 | 
COc1cc2c(cc1-c1c[nH]nc1C)-c1c(c(C(=O)N3CCOCC3(C)C)nn1-c1ccsc1)CO2 [Compound 95, (3,3-Dimethyl-morpholin-4-yl)-[7-methoxy-8-(3-methyl-1H-pyrazol-4-yl)-1-thiophen-3-yl-1,4-dihydro-chromeno[4,3-c]pyrazol-3-yl]-methanone] | 100 to 1000 | < 100 | 
COc1cc2c(cc1SCC(C)C)-c1c(c(C(=O)N3CCOCC3(C)C)nn1-c1ccsc1)CO2 [Compound 97, (3,3-Dimethyl-morpholin-4-yl)-(8-isobutylsulfanyl-7-methoxy-1-thiophen-3-yl-1,4-dihydro-chromeno[4,3-c]pyrazol-3-yl)-methanone] | 100 to 1000 | 100 to 1000 | 
